Laboratory results from patent US9452177B2, “Vitamin D compounds and methods for reducing ocular hypertension (OHT)” (Wisconsin Alumni Research Foundation, priority 2008, dated 2016).
Entries after “also recorded” stand apart in the source; their conditions may differ.

Assays:
[1] = system: eyes of ocular normotensive cynomolgus monkeys; test: Intraocular pressure (IOP) by Goldmann applanation tonometry after 5 twice-daily unilateral topical treatments; assay type: in vivo, cynomolgus monkeys (Macaca fascicularis); conditions: Example 1; for rank order of ocular hypotensive effect: 5 uniocular topical treatments at the same dose; for IOP after the 5th treatment / IOP prior to the 5th treatment compared with baseline: AGR 5 μg n=4, 2MD 6 μg n=8; for IOP prior to the 5th treatment compared with baseline: both treated and control eye
Protocol: Ocular normotensive adult cynomolgus monkeys (Macaca fascicularis), of either sex, weighing 3-7 kg were anesthetized with i.m. ketamine HCl (3-25 mg/kg, supplemented with 1-10 mg/kg) for IOP and topical drop administration. All monkeys were free of any ocular abnormalities according to slit lamp biomicroscopy at the time measurements were taken. The monkeys were provided by the Primate Center at the University of Wisconsin-Madison. All experiments were done in accordance with the ARVO Statement on the Use of Animals in Ophthalmic and Vision Research.
(§1) The intraocular pressure (IOP) was determined with a “minified” Goldmann applanation tonometer [Kaufman, 1980] using HALF AND HALF™ creamer solution (Borden) as the tear film indicator [Croft, 1997] with the monkey lying prone in a head holder and the eyes positioned 4 to 8 cm above the heart. All monkeys were examined by slit-lamp before the first IOP measurement in each protocol. For each eye, two or three IOP measurements were averaged as a baseline.
Under ketamine anesthesia (KETAJECT™, Phoenix Pharmaceutical, St Joseph, Mo. (3-25 mg/kg i.m., supplemented with 1-10 mg/kg i.m. as needed) baseline IOP was determined, usually between 7:30 and 9 am (2 readings, 5 minutes apart; if IOP baseline measurements were not within 2-3 mm Hg of each other, a 3rd reading was taken 5 min later). Baseline IOP was at least 15 mmHg if possible. A baseline blood sample was taken from the femoral artery or vein, or sometimes the brachial vein (1-2 ml). This was allowed to clot and then spun down (3000 rpm for 10 min, Damon/IEC NH-SII centrifuge) and the serum removed and frozen at −20 C for no more than 1 week. Baseline systolic, diastolic and mean arterial pressure as well as heart rate were recorded with the Dinamap monitor from a cuff placed around the arm or the leg.
After baseline measurements, the monkey was place supine with the eye pointing up and the eyelid held open. A 5 μl drop of test material or vehicle was delivered to opposite eyes. The eyelid was held open for at least 30 sec and the eye was maintained in the upward position for an additional 30 sec. The monkey was then returned to its cage and allowed to wake up. In the afternoon, at least 6 hours after the morning treatment, another treatment was administered. On the second day, dosing was repeated in the am and pm.
(§2) On the 3th day, prior to the 5th treatment, baseline IOP, biomicroscopy and MAP were determined. Preliminary studies indicated an effect was observed after these treatments but not after a single treatment. Following the 5th dose, IOP was measured at 1, 2, 3, 4, 5, 6, 7, 8, 12 (if possible), 24, and sometimes 48 hr. Biomicroscopy was done at 1, 3, 6, 24 and sometimes 48 hr. MAP on day 3 (some protocols) was determined at 1, 2, 3, 4, 5, 6, 7, 8, 24 and sometimes 48 hr if possible. Blood samples after the 5th treatment were collected at 6, 24, and sometimes 48 hr. For some protocols, IOP was also measured prior to each treatment; MAP was measured prior to the morning treatment; blood was collected prior to the afternoon treatment. Subsequent screening protocols will not include the MAP and blood collections and will only measure IOP at baseline and prior to and for 1-6 hr after the 5th treatment.
Adult cynomolgus monkeys (Macaca fascicularis) of either sex were anesthetized with intramuscular ketamine HCl (10 mg/kg initial, 5 mg/kg supplemental). Baseline pretreatment IOP was determined by Goldmann applanation tonometry [Kaufman, 1980] with […] used as a tear film indicator [Croft, 1997]. Two baseline IOP measurements were taken 5 minutes apart. […]

[2] = Ocular inflammation by slit-lamp biomicroscopy; assay type: in vivo, cynomolgus monkeys (Macaca fascicularis); conditions: Example 1; 5 topical treatments, 5 μg (2MD 6 μg)
Protocol: as §1, §2
Baseline pretreatment IOP was determined by Goldmann applanation tonometry [Kaufman, 1980] with […] used as a tear film indicator [Croft, 1997]. Two baseline IOP measurements were taken 5 minutes apart. Monkeys were then treated topically with 5 μl of 1,25-dihydroxyvitamin D3 (1,25-(OH)2D3) (0.1-5 μg) to one eye and vehicle (propylene glycol) to the opposite eye twice a day for 5 treatments total. […] IOP was also measured prior to the afternoon treatment. On the third day, IOP was measured prior to the morning treatment. Following the fifth treatment, IOP was measured hourly for 8 hours and, in some cases, also at 12, 24, and 48 hours. […]

| SMILES | IOP in treated eye compared with control eye ([1]; 5 μg (2MD 6 μg) in 5 μl propylene glycol one eye, vehicle opposite eye) | rank order of ocular hypotensive effect [1] | IOP in the control (vehicle, contralateral) eye after the 5th treatment ([1]; AGR 5 μg in opposite eye) | IOP after the 5th treatment [1] | IOP prior to the 5th treatment compared with baseline [1] | ocular inflammation [2] |
| --- | --- | --- | --- | --- | --- | --- |
| CC(CCCC(C)(C)O)C1CCC2C(=CC=C3CC(O)C(=CCCO)C(O)C3)CCCC21C (stereo not drawn) [AGR, 2-(3′-hydroxypropylidene)-19-nor-1α,25-dihydroxyvitamin D3] | no difference between the eyes at any time-point | 1,25(OH)2D3>2MD>AGR | no change in IOP in the control eye | not significantly decreased in the treated eye except at the 3 hr time point | no different than at baseline | no ocular inflammation at any time-point |
| C=C1[C@H](O)CC(=C/C=C2\CCC[C@]3(C)[C@@H]([C@@H](C)CCCC(C)(C)O)CC[C@@H]23)C[C@H]1O [2MD, 2-methylene-19-nor-(20S)-1α,25-dihydroxyvitamin D3] | – | 1,25(OH)2D3>2MD>AGR | – | gradually decreased over the next 8 hours similar to the diurnal decline seen with vehicle alone; also recorded: small drug effect at 6 and 7 hours | no different than at baseline | no ocular inflammation at any time-point |
